# Source: patent publication US5359076A, “Cyclic aminophenylacetic acid derivatives, process for preparing the same and immune response modulator having the same as an effective ingredient” (Kyorin Pharmaceutical Co., Ltd., priority 1991, dated 1994)
# Structures can show the parent of a compound that is named as a salt.
# Columns and labels:
# [1] = tested on: vascular permeability; experiment: Inhibitory effect on vascular permeability (acetic acid, Evans Blue, mice); assay type: in vivo, male ddY-strain mice; settings: 100 mg/kg, p.o.
# Method: Male ddY-strain mice were orally administered with the compound of examples in 5% arabic gum suspension. After 45 minutes, 1% Evans Blue dissolved in saline (0.1 ml/10 g body weight) was injected into tail vein, and immediately, 1% of acetic acid diluted in saline (0.1 ml/10 g body weight) was injected into peritoneal cavity. Thirty minutes later, each mouse was sacrificed and peritoneal cavity was washed with saline (2 ml/10 g body weight). Peritoneal exuded fluid was collected and centrifuged at 3,000 rpm for 10 minutes. The optical density of supernatant was read at 630 nm. The volume of Evans Blue was determined from the calibration curve and the inhibition ratio was calculated.
# [2] = tested on: adjuvant arthritis; experiment: Therapeutic effect on the adjuvant arthritis in rats (swelling of non-injected hind paw); assay type: in vivo, female SD-strain rats; settings: oral
# Method: Heat-killed Mycobacterium butyricum (0.6 mg/rat) suspended in liquid paraffin was injected intradermally into right hind paw of female SD-strain rats. Test compounds suspended in 0.3% CMC solution were administered orally once a day for 7 days from 14 days to 20 days after the injection of adjuvant. The swelling of non-injected hind paw was measured by the water displacement method.
# [3] = tested on: IgM antibody-producing cells; experiment: Effect on IgM antibody-producing cells in vivo (Jerne method); parameters: species or system BALB/c-strain mice; settings: 12.5 mg/kg/day, oral 4 days, n 7
# Method: To a BALB/c-strain mice were intraperitoneally injected with 5×10^8 /0.1 ml of sheep erythrocytes. The test compound was administered orally once a day for 4 days since the erythrocyte injection. On the next day of final administration, the spleen cells were isolated by finely mincing the spleen, centrifuged and suspended in medium (RPMI-1640+10% FCS). The number of IgM antibody-producing cells was counted by Jerne method.
# [4] = tested on: IgM antibody-producing cells; experiment: Effect on IgM antibody-producing cells in vitro (Jerne method); assay type: cell-based, BDF1-strain mice; settings: n 6; for IgM-PFC/culture (mean ± S.E.): reference 82 ± 15, *p < 0.01 (Dunnett's test)
# Method: The spleen cells of BDF1 -strain mice were isolated by finely mincing the spleen, centrifuged, and suspended in medium (RPMI-1640+10% FCS). Each 50 μl of spleen cell suspension (2×10^7 cells/ml) and sheep erythrocyte suspension (1×10^7 cells/ml) was spread on a 96-well plate. Test compounds were dissolved in DMSO and diluted in medium. Then, 100 μl of medium containing test compounds were added to the 96-well plate. After the plate was incubated at 37° C. for 5 days in 5% CO2 incubator, the number of IgM antibody-producing cells was counted by Jerne method.
# [5] = 25 mg/kg/day, 18 Days after adjuvant
# [6] = 25 mg/kg/day, 21 Days after adjuvant
# [7] = 25 mg/kg/day, 27 Days after adjuvant
# [8] = 50 mg/kg/day, 18 Days after adjuvant
# [9] = 50 mg/kg/day, 21 Days after adjuvant
# [10] = 50 mg/kg/day, 27 Days after adjuvant
structure (smiles),measurement,setting,value
"CSc1cc(CC(=O)O)cc2c1NC(C(F)(F)F)CC2 (stereo not drawn) [Example 29, 8-Methylthio-1,2,3,4-tetrahydro-2-trifluoromethylquinoline-6-acetic acid]",Inhibition ratio (vascular permeability),[1],18.4%
"CCOC(=O)Cc1cc(Cl)c2c(c1)CCC(c1ccccc1F)N2 (stereo not drawn) [Example 4, Ethyl 8-chloro-2-(2-fluorophenyl)-1,2,3,4-tetrahydroquinoline-6-acetate]",Inhibition ratio (vascular permeability),[1],33.1%
"O=C(O)Cc1ccc2c(c1)CCC(C(F)(F)F)N2 (stereo not drawn) [Example 16, 1,2,3,4-Tetrahydro-2-trifluoromethylquinoline-6-acetic acid]",Inhibition ratio (vascular permeability),[1],37.3%
"O=C(O)Cc1cc2c(c(C(=O)c3ccccc3)c1)NC(C(F)(F)F)CC2 (stereo not drawn) [Example 32, Sodium salt of 8-benzoyl-1,2,3,4-tetrahydro-2-trifluoromethylquinoline-6-acetic acid]",Inhibition ratio (vascular permeability),[1],19.7%
"O=C(O)Cc1cc(Br)c2c(c1)CCC(C(F)(F)F)N2 (stereo not drawn) [Example 23, 8-Bromo-1,2,3,4-tetrahydro-2-trifluoromethylquinoline-6-acetic acid]",Inhibition ratio (vascular permeability),[1],38.6%
"CC(=O)c1cc(CC(=O)O)cc2c1NC(C(F)(F)F)CC2 (stereo not drawn) [Example 28, 8-Acetyl-1,2,3,4-tetrahydro-2-trifluoromethylquinoline-6-acetic acid]",Inhibition ratio (vascular permeability),[1],16.7%
"O=C(O)Cc1cc(Cl)c2c(c1)CCC(C(F)(F)F)N2 (stereo not drawn) [Example 15, 8-Chloro-1,2,3,4-tetrahydro-2-trifluoromethylquinoline-6-acetic acid]",Inhibition ratio of swelling,"[2]; 12.5 mg/kg/day, 18 Days after adjuvant",21%
same,Inhibition ratio of swelling,"[2]; 12.5 mg/kg/day, 21 Days after adjuvant",36%
same,Inhibition ratio of swelling,"[2]; 12.5 mg/kg/day, 27 Days after adjuvant",50%
same,Inhibition ratio of swelling,[2]; [5],39%
same,Inhibition ratio of swelling,[2]; [6],45%
same,Inhibition ratio of swelling,[2]; [7],52%
same,Inhibition ratio of swelling,[2]; [8],39%
same,Inhibition ratio of swelling,[2]; [9],56%
same,Inhibition ratio of swelling,[2]; [10],58%
same,Inhibition ratio (IgM-PFC in vivo),[3],35%
same,IgM-PFC/spleen (× 10^2) (mean ± S.E.),"[3]; reference 995 ± 55, *p < 0.05 (Dunnett's test)",651 ± 49 IgM-PFC/spleen (× 10^2)
same,Inhibition ratio (vascular permeability),[1],29.1%
same,IgM-PFC/culture (mean ± S.E.),[4]; 2 × 10^-6 M,24 ± 3 IgM-PFC/culture
same,IgM-PFC/culture (mean ± S.E.),[4]; 5 × 10^-5 M,31 ± 9 IgM-PFC/culture
same,inhibition at 2 µM,"[4]; Mus musculus, 120 h, 2 × 10^-6 M, read-out: Inhibition ratio (IgM-PFC in vitro)",71%
same,inhibition at 50 µM,"[4]; Mus musculus, 120 h, 5 × 10^-5 M, read-out: Inhibition ratio (IgM-PFC in vitro)",62%
"CN1c2ccc(CC(=O)O)cc2CCC1c1ccccc1 (stereo not drawn) [Example 11, 1-Methyl-2-phenyl-1,2,3,4-tetrahydroquinoline-6-acetic acid]",Inhibition ratio (vascular permeability),[1],42.7%
"O=C(O)Cc1cc(Cl)c2c(c1)CCC(c1ccccc1)N2 (stereo not drawn) [Example 8, 8-Chloro-2-phenyl-1,2,3,4-tetrahydroquinoline-6-acetic acid]",Inhibition ratio (vascular permeability),[1],50.0%
"CN1c2c(Cl)cc(CC(=O)O)cc2CCC1c1ccccc1 (stereo not drawn) [Example 12, 8-Chloro-1-methyl-2-phenyl-1,2,3,4-tetrahydroquinoline-6-acetic acid]",Inhibition ratio (vascular permeability),[1],52.7%
"COc1ccc(C2CCc3cc(CC(=O)O)cc(Cl)c3N2)cc1 (stereo not drawn) [Example 9, 8-Chloro-2-(4-methoxyphenyl)-1,2,3,4-tetrahydroquinoline-6-acetic acid]",Inhibition ratio (vascular permeability),[1],16.0%
"N#Cc1cc(CC(=O)O)cc2c1NC(C(F)(F)F)CC2 (stereo not drawn) [Example 24, 8-Cyano-1,2,3,4-tetrahydro-2-trifluoromethylquinoline-6-acetic acid]",Inhibition ratio (vascular permeability),[1],25.9%
"O=C(O)Cc1cc2c(c([N+](=O)[O-])c1)NC(C(F)(F)F)CC2 (stereo not drawn) [Example 33, 8-Nitro-1,2,3,4-tetrahydro-2-trifluoromethylquinoline-6-acetic acid]",Inhibition ratio (vascular permeability),[1],25.4%
"O=C(O)Cc1cc2c(c(-c3ccccc3)c1)NC(C(F)(F)F)CC2 (stereo not drawn) [Example 27, 8-Phenyl-1,2,3,4-tetrahydro-2-trifluoromethylquinoline-6-acetic acid]",Inhibition ratio (vascular permeability),[1],27.0%
"O=C(O)Cc1cc(Cl)c2c(c1)CCC(c1ccccc1F)N2 (stereo not drawn) [Example 7, 8-Chloro-2-(2-fluorophenyl)-1,2,3,4-tetrahydroquinoline-6-acetic acid]",Inhibition ratio of swelling,[2]; [5],6%
same,Inhibition ratio of swelling,[2]; [6],19%
same,Inhibition ratio of swelling,[2]; [7],33%
same,Inhibition ratio of swelling,[2]; [8],36%
same,Inhibition ratio of swelling,[2]; [9],52%
same,Inhibition ratio of swelling,[2]; [10],50%
same,Inhibition ratio of swelling,"[2]; 100 mg/kg/day, 18 Days after adjuvant",59%
same,Inhibition ratio of swelling,"[2]; 100 mg/kg/day, 21 Days after adjuvant",64%
same,Inhibition ratio of swelling,"[2]; 100 mg/kg/day, 27 Days after adjuvant",64%
same,Inhibition ratio (vascular permeability),[1],51.1%
